Results on 26 compounds are retold here after patent publication US20230150952A1, “TYPE 2 RYANODINE RECEPTOR ACTIVITY INHIBITOR” (JUNTENDO EDUCATIONAL FOUNDATION, priority 2020, published 2023).

pEC50: −log10 of the molar value.

Sequence of type 2 ryanodine receptor (E9Q401 whole entry): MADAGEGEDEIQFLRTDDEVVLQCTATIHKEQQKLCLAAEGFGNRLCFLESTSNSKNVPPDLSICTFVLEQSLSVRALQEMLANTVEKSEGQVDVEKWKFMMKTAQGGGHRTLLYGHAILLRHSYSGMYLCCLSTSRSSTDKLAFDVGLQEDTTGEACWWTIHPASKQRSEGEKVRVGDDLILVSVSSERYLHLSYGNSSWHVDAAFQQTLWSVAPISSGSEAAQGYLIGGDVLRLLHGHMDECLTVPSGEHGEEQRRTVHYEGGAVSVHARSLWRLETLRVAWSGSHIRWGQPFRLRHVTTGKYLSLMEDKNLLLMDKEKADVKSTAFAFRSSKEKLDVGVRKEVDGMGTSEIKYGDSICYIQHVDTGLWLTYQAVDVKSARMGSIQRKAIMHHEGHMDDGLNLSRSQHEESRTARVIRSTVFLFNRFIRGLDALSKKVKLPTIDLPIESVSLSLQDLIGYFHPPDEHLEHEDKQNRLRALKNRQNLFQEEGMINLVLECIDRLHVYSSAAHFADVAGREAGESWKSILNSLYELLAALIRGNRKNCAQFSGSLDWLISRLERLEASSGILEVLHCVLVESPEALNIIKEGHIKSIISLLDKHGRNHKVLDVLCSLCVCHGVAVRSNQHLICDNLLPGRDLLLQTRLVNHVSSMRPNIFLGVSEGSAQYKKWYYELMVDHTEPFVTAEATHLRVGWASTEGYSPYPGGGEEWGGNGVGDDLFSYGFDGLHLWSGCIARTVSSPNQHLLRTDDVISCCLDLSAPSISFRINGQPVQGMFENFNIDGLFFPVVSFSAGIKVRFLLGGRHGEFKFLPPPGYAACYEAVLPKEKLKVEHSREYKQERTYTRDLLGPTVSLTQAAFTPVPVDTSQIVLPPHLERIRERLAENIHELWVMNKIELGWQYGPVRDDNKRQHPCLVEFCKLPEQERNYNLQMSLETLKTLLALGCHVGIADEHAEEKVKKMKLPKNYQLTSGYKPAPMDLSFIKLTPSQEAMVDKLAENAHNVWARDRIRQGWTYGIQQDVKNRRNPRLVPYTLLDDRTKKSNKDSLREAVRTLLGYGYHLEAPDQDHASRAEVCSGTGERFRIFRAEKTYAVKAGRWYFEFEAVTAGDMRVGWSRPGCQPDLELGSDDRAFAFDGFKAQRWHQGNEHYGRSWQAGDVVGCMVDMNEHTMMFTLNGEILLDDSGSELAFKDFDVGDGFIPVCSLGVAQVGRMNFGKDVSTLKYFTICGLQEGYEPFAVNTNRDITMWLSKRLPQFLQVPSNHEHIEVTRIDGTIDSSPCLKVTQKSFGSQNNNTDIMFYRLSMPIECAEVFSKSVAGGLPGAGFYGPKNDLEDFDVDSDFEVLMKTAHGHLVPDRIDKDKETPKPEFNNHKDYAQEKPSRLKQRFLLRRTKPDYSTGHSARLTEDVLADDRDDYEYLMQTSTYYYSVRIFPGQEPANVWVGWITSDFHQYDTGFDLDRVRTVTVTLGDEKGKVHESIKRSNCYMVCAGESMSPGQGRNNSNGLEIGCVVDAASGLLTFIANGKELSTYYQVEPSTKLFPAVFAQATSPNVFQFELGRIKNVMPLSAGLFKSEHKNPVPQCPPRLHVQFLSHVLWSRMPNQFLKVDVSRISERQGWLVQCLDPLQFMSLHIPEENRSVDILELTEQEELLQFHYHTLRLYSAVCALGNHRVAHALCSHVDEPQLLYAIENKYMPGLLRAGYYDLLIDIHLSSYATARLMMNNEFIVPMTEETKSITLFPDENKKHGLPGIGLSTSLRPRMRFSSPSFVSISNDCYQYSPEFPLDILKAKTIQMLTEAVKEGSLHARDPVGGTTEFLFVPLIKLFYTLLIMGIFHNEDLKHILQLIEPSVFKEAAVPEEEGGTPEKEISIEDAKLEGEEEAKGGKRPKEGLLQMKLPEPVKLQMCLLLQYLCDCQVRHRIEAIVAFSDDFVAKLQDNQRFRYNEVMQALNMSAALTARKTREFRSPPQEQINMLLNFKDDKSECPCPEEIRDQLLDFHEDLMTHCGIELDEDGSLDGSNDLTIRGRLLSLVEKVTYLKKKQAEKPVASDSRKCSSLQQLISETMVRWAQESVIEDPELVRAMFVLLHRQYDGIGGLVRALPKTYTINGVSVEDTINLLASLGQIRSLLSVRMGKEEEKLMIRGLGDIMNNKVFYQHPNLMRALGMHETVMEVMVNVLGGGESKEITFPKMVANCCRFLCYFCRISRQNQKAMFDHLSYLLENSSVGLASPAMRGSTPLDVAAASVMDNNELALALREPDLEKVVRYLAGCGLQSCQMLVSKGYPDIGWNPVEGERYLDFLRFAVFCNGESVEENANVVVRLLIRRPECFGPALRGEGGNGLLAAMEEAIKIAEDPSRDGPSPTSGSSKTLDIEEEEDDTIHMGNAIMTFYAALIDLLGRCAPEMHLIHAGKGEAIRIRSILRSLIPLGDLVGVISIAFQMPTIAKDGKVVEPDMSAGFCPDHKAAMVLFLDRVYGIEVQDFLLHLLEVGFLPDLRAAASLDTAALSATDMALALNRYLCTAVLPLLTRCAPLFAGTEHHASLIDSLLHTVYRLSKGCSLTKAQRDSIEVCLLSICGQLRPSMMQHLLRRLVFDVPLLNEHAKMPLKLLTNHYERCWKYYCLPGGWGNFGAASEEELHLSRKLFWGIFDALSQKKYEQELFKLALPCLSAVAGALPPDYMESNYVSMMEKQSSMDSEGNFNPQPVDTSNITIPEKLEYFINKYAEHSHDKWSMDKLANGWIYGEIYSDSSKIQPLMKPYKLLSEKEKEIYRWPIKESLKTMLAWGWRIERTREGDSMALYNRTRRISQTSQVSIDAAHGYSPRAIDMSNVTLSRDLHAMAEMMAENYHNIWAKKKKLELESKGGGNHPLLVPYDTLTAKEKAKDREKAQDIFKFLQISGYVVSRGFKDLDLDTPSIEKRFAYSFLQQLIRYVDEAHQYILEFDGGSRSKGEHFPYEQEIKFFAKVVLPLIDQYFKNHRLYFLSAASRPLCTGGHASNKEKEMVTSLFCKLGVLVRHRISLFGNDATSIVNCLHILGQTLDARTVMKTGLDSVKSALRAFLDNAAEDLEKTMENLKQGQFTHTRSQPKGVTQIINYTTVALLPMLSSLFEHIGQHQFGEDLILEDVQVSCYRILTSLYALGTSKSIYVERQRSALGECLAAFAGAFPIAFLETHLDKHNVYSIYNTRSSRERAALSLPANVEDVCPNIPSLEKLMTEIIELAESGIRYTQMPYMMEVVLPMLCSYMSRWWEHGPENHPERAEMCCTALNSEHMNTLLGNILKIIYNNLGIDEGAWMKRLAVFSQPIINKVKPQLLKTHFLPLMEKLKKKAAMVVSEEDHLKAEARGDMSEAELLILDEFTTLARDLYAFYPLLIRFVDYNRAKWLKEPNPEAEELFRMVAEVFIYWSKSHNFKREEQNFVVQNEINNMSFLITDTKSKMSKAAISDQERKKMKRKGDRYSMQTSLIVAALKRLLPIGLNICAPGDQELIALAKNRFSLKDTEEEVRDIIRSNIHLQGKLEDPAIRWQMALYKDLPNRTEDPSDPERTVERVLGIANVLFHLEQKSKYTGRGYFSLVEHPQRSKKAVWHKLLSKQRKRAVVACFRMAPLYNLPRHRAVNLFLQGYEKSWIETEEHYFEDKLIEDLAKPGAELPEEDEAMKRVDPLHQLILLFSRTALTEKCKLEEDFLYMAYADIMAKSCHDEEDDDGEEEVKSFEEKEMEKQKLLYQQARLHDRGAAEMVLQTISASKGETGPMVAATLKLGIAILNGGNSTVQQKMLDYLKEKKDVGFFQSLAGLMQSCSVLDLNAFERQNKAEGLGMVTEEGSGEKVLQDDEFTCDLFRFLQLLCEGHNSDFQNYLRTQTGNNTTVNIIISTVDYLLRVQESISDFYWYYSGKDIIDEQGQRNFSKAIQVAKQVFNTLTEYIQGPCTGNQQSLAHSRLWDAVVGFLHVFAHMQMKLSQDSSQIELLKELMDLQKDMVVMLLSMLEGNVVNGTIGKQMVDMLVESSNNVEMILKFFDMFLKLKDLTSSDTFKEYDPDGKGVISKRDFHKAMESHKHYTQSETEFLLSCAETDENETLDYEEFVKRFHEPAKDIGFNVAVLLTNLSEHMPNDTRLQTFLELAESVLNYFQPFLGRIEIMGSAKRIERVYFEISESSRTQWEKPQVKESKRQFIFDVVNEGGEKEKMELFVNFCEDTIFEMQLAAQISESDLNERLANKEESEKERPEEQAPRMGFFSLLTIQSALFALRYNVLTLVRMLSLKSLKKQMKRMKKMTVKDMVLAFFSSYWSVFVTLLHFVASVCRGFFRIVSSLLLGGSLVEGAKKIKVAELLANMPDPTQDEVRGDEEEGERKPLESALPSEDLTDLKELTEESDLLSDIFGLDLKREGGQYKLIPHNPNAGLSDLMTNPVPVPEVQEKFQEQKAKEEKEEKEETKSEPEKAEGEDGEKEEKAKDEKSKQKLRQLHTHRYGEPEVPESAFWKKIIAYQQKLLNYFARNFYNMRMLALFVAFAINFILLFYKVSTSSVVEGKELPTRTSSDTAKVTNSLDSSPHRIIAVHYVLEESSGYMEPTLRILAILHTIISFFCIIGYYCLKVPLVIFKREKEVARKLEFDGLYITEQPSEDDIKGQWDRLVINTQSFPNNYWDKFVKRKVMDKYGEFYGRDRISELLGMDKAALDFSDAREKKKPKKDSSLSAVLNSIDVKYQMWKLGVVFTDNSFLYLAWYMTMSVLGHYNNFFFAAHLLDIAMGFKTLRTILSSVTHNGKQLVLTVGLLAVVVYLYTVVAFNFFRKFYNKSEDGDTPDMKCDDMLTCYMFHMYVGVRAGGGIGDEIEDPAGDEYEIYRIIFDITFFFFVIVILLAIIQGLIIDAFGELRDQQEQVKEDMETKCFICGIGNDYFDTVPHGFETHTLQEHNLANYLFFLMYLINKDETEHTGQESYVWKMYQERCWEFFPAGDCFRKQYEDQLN

For the first assay, the target named is type 2 ryanodine receptor (Mus musculus, UniProt E9Q401). In words: type 2 ryanodine receptor activity inhibitory effect: endoplasmic reticulum Ca2+ (R-CEPIA1er fluorescence) in RyR-expressing HEK293 cells. The class given is cell-based. The settings on record: final concentration 10^-9 to 10^-4 M; Hill equation fit; ER Ca2+ fluorescence in HEK293 cells. As for the experimental part:
The EC50 value of each of the compounds shown in Table 13 with respect to the type 2 ryanodine receptor activity inhibitory effect, was measured in accordance with the following procedure.
cDNA of RyR2 was cloned from the heart muscle of a mouse by a PCR method and introduced into an expression vector (pcDNA5/FRT/TO) for Flp-In T-REX having hygromycin resistance. The vector is a tetracycline-inducible expression (Tet-On) vector and induces expression of RyR in the presence of doxycycline.
Also, R-CEPIA1er described in Nat. Commun., 2014, 5: 4153 was introduced into a neomycin resistant expression vector, pCMV/myc/ER. This vector constantly expresses R-CEPIA1er.
As HEK293 cells, Flp-In T-REX 293 cells corresponding to the Tet-On inducible system were prepared. The cells were cultured in a CO2 incubator at 37° C.
A pathogenic mutant-type RyR gene was introduced into Flp-In T-REX 293 cells by a lipofection method. The cells were cultured in a medium containing hygromycin for 10 to 14 days to establish a pathogenic mutant RyR stably expressing strain. Into the pathogenic mutant RyR stably expressing strain, an R-CEPIA1er expression vector was introduced by a lipofection method. The strain was cultured in a medium containing G418 to establish a stable dual expression strain expressing a pathogenic mutant-type RyR gene and R-CEPIA1er.
A wild-type RyR gene was introduced into Flp-In T-REX 293 cells by a lipofection method. The cells were cultured in a medium containing hygromycin for 10 to 14 days to establish a RyR stably expressing strain. Into the RyR stably expressing strain, an R-CEPIA1er expression vector was introduced by a lipofection method. The strain was cultured in a medium containing G418 to establish a stable dual expression strain expressing a wild-type RyR gene and R-CEPIA1er.
The cultured cells expressing a pathogenic mutant RyR and R-CEPIA1er and the cultured cells expressing wild type RyR and R-CEPIA1er were separately cultured in plastic dishes at 37° C. for 24 hours. Then, the medium was exchanged with a medium containing doxycycline and the cells were further cultured for 24 hours. Fluorescence measurement was carried out by use of FlexStation. R-CEPIA1er was excited at 560 nm to acquire fluorescence at 610 nm. Fluorescence was acquired every 10 seconds for 300 seconds. The compounds shown in Table 13 each were added 60 seconds after initiation, and Ca^2+ concentration in the fluorescent endoplasmic reticulum was measured.
Inhibitory effects of the compounds on type 2 ryanodine receptor activity shown in Table 13 each were measured in the range of a final concentration of 10^−9 to 10^−4 M by the methods above. Based on the measurement results, a dose-response curve approximating the Hill equation was obtained by the least squares method. In this manner, EC50 values were calculated.
Consider `CN(C(=O)Cn1nnc(-c2ccccc2)n1)c1ccccc1` [Compound 35], for which the pEC50 – broadly, the negative decadic logarithm of the EC50, by convention in mol/L – is 6.17.
On the same count and under the same terms, the same measure for `Cc1cccc(N(C)C(=O)Cn2nnc(-c3ccccc3)n2)c1` [Compound 37]: 6.22.
Same read-out and setting: then `Cc1ccc(N(C)C(=O)Cn2nnc(-c3ccccc3)n2)cc1` [Compound 38], with 5.56; and `COc1cccc(N(C)C(=O)Cn2nnc(-c3ccccc3)n2)c1` [Compound 40], with 5.08.
On the same count and under the same terms, then `COc1ccc(N(C)C(=O)Cn2nnc(-c3ccccc3)n2)cc1` [Compound 41], with 6.81; and `COc1ccccc1-c1nnn(CC(=O)N(C)c2ccccc2)n1` [Compound 45], with 5.47; and `COc1cccc(-c2nnn(CC(=O)N(C)c3ccccc3)n2)c1` [Compound 46], with 6.83.
On to `COc1ccc(-c2nnn(CC(=O)N(C)c3ccccc3)n2)cc1` [Compound 47], for which the pEC50 is 5.90.
The compound `COc1ccc(N(C)C(=O)Cn2nnc(-c3cccc(OC)c3)n2)cc1` [Compound 48] showed a negative logarithm of the EC50 (pEC50) of 7.37.
For the compound `COc1cccc(-c2nnn(CC(=O)N(C)c3ccc(F)cc3)n2)c1` [Compound 49], the pEC50 is 7.36.
The same measure, in the same setting: the same measure for `COc1ccc(N(C)C(=O)Cn2nnc(-c3cccc(F)c3)n2)cc1` [Compound 50]: 7.44; for `CN(C(=O)Cn1nnc(-c2cccc(F)c2)n1)c1ccc(F)cc1` [Compound 51]: 7.31; for `COc1cccc(-c2nnn(CC(=O)N(C)c3ccc(F)c(OC)c3)n2)c1` [Compound 53]: 7.29.
In turn, `COc1cccc(-c2nnn(CC(=O)N(C)c3ccc4c(c3)OCO4)n2)c1` [Compound 54] gave a pEC50 of 7.32.
For `CN(C(=O)Cn1nnc(-c2cc(F)cc(F)c2)n1)c1ccc(F)cc1` [Compound 57], the pEC50 is 7.82.
Still for that read-out and setting: then `CCN(C(=O)Cn1nnc(-c2ccccc2)n1)c1ccccc1` [Compound 58], with 5.26.
Still for that read-out and setting: then `CCN(C(=O)Cn1nnc(-c2ccccc2)n1)c1ccc(OC)cc1` [Compound 59], with 5.87; and `CCN(C(=O)Cn1nnc(-c2ccccc2)n1)c1ccc(F)cc1` [Compound 60], with 6.11; and `CCN(C(=O)Cn1nnc(-c2ccccc2)n1)c1ccc(OC(F)(F)F)cc1` [Compound 61], with 4.35.
`CCN(C(=O)Cn1nnc(-c2ccc(OC)cc2)n1)c1ccc(OC)cc1` [Compound 62] showed a pEC50 of 5.57. Compared with the last compound, the pEC50 is 1.22 log units higher.
Compound `CCN(C(=O)Cn1nnc(-c2ccc(OC(F)(F)F)cc2)n1)c1ccc(F)cc1` [Compound 63] gave a pEC50 of 5.98.
In turn, `CCCN(C(=O)Cn1nnc(-c2ccccc2)n1)c1ccccc1` [Compound 66] gave a pEC50 of 4.40.
Still for that read-out and setting: the same measure for `COc1ccc(N(C)C(=S)Cn2nnc(-c3cccc(OC)c3)n2)cc1` [Compound 67]: 7.39.
For the compound `COc1cccc(-c2nnn(CC(=S)N(C)c3ccc(F)cc3)n2)c1` [Compound 68], the pEC50 was 7.51.
In turn, `COc1ccc(N(C)C(=S)Cn2nnc(-c3cccc(F)c3)n2)cc1` [Compound 69] showed a pEC50 of 7.41.
In turn, `CN(C(=S)Cn1nnc(-c2cccc(F)c2)n1)c1ccc(F)cc1` [Compound 70] showed a pEC50 of 7.48. This pEC50 and that of the compound before are within 0.2 log units of each other.

A further assay relates to mouse having RyR2 I4093V mutation. The assay can be described thus: electrocardiogram of RyR2 mutation-harboring mouse before and after intraperitoneal administration. It is filed as in vivo. The settings on record: 0.3 mg/kg intraperitoneal; 5-15 minutes after administration; FIG. 2. The text has this:
In Riken BRC, male mice administered with N-ethyl-N-nitrosourea (ENU) were crossed with normal wild type females to obtain child mice (First generation: G1). These G1 mice were subjected to systematic phenotypic screening. […] As a result, a mouse having RyR2 I4093V mutation (RyR2 c.12277A>G (NM_023868.2) p.I4093V (NP_076357.2)) was found. The mouse was backcrossed with a normal wild type mouse (8 generations or more). As a result, mice conceivably having a mutation of RyR2 I4093V alone were obtained.
Compound 57 shown in Table 10 was dissolved in saline (0.9% aqueous NaCl solution) to prepare a 0.03-0.1 mg/mL solution containing compound 57. • (3) Measurement of Electrocardiogram of RyR2 Mutation-Harboring Mouse and Administration of Drug
The aforementioned mutant mice of 4-5 months old were subjected to anesthesia induction with 2% isoflurane. While maintaining the anesthetic state with 1% isoflurane, electrodes for electrocardiogram were attached to four limbs and electrocardiographical monitoring was continuously carried out. Before drug administration, electrocardiographical monitoring was carried out for 10 minutes. Then, the solution containing compound 57 prepared above was intraperitoneally injected so as to have a concentration of 0.3 mg/kg or 1 mg/kg. The electrocardiogram was recorded for further 15 minutes.
The time during which successive bigeminal pulse, trigeminal pulse or ventricular tachycardia (regarded as arrhythmia) occurred during 5-15 minutes after administration of compound 57, were summed up per individual and the ratio of time when arrhythmia occurs was obtained.
As for `CN(C(=O)Cn1nnc(-c2cc(F)cc(F)c2)n1)c1ccc(F)cc1` [Compound 57], the “occurrence of arrhythmia (ratio of time when arrhythmia occurs)” value is “low”.

The same assay, now with this note: 0.3 mg/kg intraperitoneal; RyR2 I4093V mice; FIG. 1.
For the compound `CN(C(=O)Cn1nnc(-c2cc(F)cc(F)c2)n1)c1ccc(F)cc1` [Compound 57], the “ECG (bidirectional ventricular tachycardia before administration)” value is “went back to normal”.

Staying with this assay, now noted: 1 mg/kg intraperitoneal; 5-15 minutes after administration; FIG. 2.
For the compound `CN(C(=O)Cn1nnc(-c2cc(F)cc(F)c2)n1)c1ccc(F)cc1` [Compound 57], the “occurrence of arrhythmia (ratio of time when arrhythmia occurs)” value is given as “low”.
